# Measured values taken from patent US10808128B2, “Compounds as fluorescent probes, synthesis and applications thereof” (priority 2018, dated 2020).
# Entries after “also recorded” stand apart in the source; their conditions may differ.
# Experiments:
# [1] = Stability of dye stock solution; type: physicochemical; conditions: 1 mM in 50% DMSO-water, stored at about 4° C.
# Procedure: (§1) Formula I compounds (dyes) are positively charged and can be easily targeted to the mitochondria of the live cells. The dyes are highly specific for functional mitochondria. Localization is confirmed by ‘colocalization’ assays with mitochondria specific commercial dyes and high-resolution microscopy. […] This stock solution was stored at about 4° C.
# [2] = tested on: mitochondria of live human primary fibroblasts; test: Photo-toxicity study during repeat photo-illumination and fast mitochondrial imaging; type: cell-based; conditions: for photostability during fast imaging of mitochondria: human primary fibroblasts, fast time lapse (10 sec interval, 300 seconds)
# Text: Fast (10 sec interval) time lapse images were acquired for 300 seconds.
# [3] = tested on: mitochondria of human embryonic kidney (HEK) cells; test: Effect of CCCP on HC-2 fluorescence; type: cell-based; conditions: 5 μM CCCP
# Procedure: as §1
# [4] = tested on: live human pluripotent stem cells (hPSCs); test: Mitochondrial imaging of live pluripotent stem cells; type: cell-based; conditions: 250 nM, 30 minutes, confocal
# [5] = tested on: mitochondria of human primary fibroblast cells; test: Colocalization of HC-2 with MitoTracker Green; type: cell-based; conditions: live human primary fibroblast cells
# Procedure: as §1
# [6] = tested on: mitochondria of live HEK 293 cells; test: Effect of Monensin on HC-2 stained mitochondria; type: cell-based, human; conditions: HC-2 250 nM, Monensin 10 μM, 0-90 minutes
# [7] = HC-1 fluorescence in surfactant micelles (SDS, TritonX-100); CMC by sigmoidal fitting; type: physicochemical; conditions: from HC-1 (2.5 μM) fluorescence intensity versus surfactant concentration
# Procedure: Initially 300 mM solution of sodium dodecyl sulfate (SDS) in milli-Q water was prepared. Then, solution of varied concentrations (1-300 mM) by serial dilution was prepared. All the prepared solutions were heated at 70° C. for about 15 minutes and stored at room temperature overnight. Similarly, a stock of 10 mM was prepared for TritonX-100 also. Then solution of different concentration (0.05-4 mM) was prepared by serial dilution.
# [8] = tested on: mitochondria of U2OS cells; test: Effect of CCCP on HC-1 fluorescence (mitochondrial membrane potential); type: cell-based, human; conditions: 5 μM CCCP
# Procedure: Effect of Carbonyl Cyanide 3-Chloro Phenylhydrazone [CCCP]: Dye-labeled cells were imaged on the Olympus IX83 inverted microscope coupled to a 560 nm laser line connected to a Evolve 512 Delta EMCCD camera. 5 μM CCCP (final concentration) was used for the assay. Different regions were selected on the dish and imaged before the addition of CCCP and after addition at an interval of about 5 minutes for duration of about 15 minutes.
# [9] = UV-Vis and steady state fluorescence of HC-1 in ten solvents; fluorescence quantum yield; type: physicochemical; conditions: for Quantum yield: reference Rhodamine B (0.55)
# Procedure: UV-Vis measurement was performed in Shimadzu UV-Vis spectrophotometer (U2600) and steady state fluorescence study was performed in Horiba-Yobin (Fluorolog3) fluorescence spectrophotometer. For all the fluorescence measurements, excitation and emission slits were kept constant at 2 nm (except studies on pH dependence: excitation/emission=2/4 nm respectively). Final concentration was 2.5 μM (except for measurement of fluorescence quantum yield [1 μM] and lifetime [25 μM]) for all the spectroscopic studies.
# The HC-1 absorption and fluorescence were recorded in ten solvents of varying polarity and viscosity.
# An aqueous solution of Rhodamine B was used as reference. Fluorescence (integrated intensities) and absorbance values were obtained and the quantum yield was calculated using the following equation;
# φ and φr: Quantum yield of sample and reference (0.55) respectively; A and Ar: Absorbance of sample and reference respectively; L: path length of the cuvette (here is same); N and Nr: refractive index of the solvents containing sample and reference; I and Ir: Integrated intensity of fluorescence emission of sample and reference respectively.
# [10] = tested on: primary mouse fibroblasts; test: Imaging local order and viscosity of mitochondria during fibroblast activation; type: cell-based; conditions: HC-1 250 nM with TMRE 125 nM
# Procedure: A study on the use of HC-1 for imaging local order and viscosity of mitochondria and use of said imaging to measure changes in mitochondrial function and cellular state and function was carried out.
# [11] = tested on: E14TG2a mouse embryonic stem cells; test: Imaging HC-1 stained mitochondria of embryonic stem cells, incl. long term imaging to check cytotoxicity; type: cell-based; conditions: E14TG2a mouse ESCs with LIF
# Procedure: E14TG2a (mouse embryonic stem cells) were cultured in GMEM supplemented with FBS, Glutamine, Non-essential amino acids, β-mercaptoethanol, Penicilin-streptomycin and depending on culture conditions, with or without […] (LIF). […] Images were acquired on the FV1000 confocal microscope. Imaging set up used in the present example was same as the imaging set up used for colocalization described above.
# Confocal (FV1000, Olympus) images were acquired for 12 hours at 3 hours interval.
# [12] = tested on: mitochondria of U2OS cells; test: Imaging of live cell mitochondria by HC-1 and co-localization assay with MitoTracker Green; type: cell-based, human; conditions: confocal
# Procedure: For imaging, cells were plated on fibronectin coated (final concentration of 10 μg/ml) glass-bottomed dishes and allowed to attach. […] Cells were then washed twice with DPBS and fresh serum-free media was added.
# Co-localization assay of HC-1 using MitoTracker Green: Cells were labeled using both MitoTracker Green and HC-1 dyes (by aforementioned protocol). Confocal images were taken using Olympus FV1000 Confocal microscope (×60 oil immersion objective at 1.6× optical zoom). Excitation parameters used were 488 nm excitation and 500-530 nm emission for MitoTracker Green, and 543 nm excitation and emissions above 560 nm for HCl. Pearson correlation dot plot was constructed using Coloc2 plugin of ImageJ.
# [13] = tested on: mitochondria of U2OS cells; test: Effect of Monensin on HC-1 stained mitochondria; type: cell-based, human; conditions: Monensin 10 µM / 10 μM, 0, 30, 60 minutes
# [14] = Effect of pH, ions, serum protein, plasmid DNA and glutathione on HC-1 fluorescence; type: physicochemical; conditions: HC-1 2.5 μM
# Procedure: 0.1 M buffers of identical ionic strength solution were used for carryout the experiments. For pH 3, 4, 5 and 5.5, acetate buffer was used, for pH 6.2, 6.9 and 7.4, phosphate buffer was used and for pH 8 and 9.2, Tris-HCl buffer was used. The used salts were Sodium Chloride (NaCl), Potassium Chloride (KCl), Magnesium Chloride (MgCl2), Zinc Chloride (ZnCl2), Nickel Chloride (NiCl2) and Ferric Chloride (FeCl3). Final concentration of the cations (except Zn) was 10 mM and prepared in 1× Phosphate Buffer Saline. For Zn (II), saturated aqueous solution was used. Bovine Serum Albumin (BSA), plasmid DNA and glutathione concentration were at 1 mg−ml^−1, 5 μg−ml^−1 and 10 μM respectively. […] Fluorescence measurement was performed after 30 minutes of incubation.
# [15] = HC-1 in Ethylene glycol (13.5 cP)
# [16] = HC-1 in Glycerol (9.50 cP as printed)
compound,measurement,setting,value
"CN(C)c1ccc(/C=C/C=C/C2=[N+](C)c3ccc4ccccc4c3C2(C)C)cc1.[I-] [HC-2, 2-((1E,3E)-4-(4-(Dimethylamino)phenyl)buta-1,3-dien-1-yl)-1,1,3-trimethyl-1H-benzo[e]indol-3-ium iodide]",stability of stock solution,[1],stable for one year
same,photostability during fast imaging of mitochondria,[2],highly photo-stable
same,effect of CCCP on HC-2 fluorescence,[3],loss of HC-2 fluorescence
same,staining of mitochondria of live hPSCs,[4],uniform staining of the mitochondria
same,2D intensity correlation with MitoTracker Green (Pearson R),[5],0.91
same,effect of Monensin on HC-2 fluorescence in mitochondria,[6],time-dependent increase in fluorescence intensity; also recorded: Time dependent increase in fluorescence intensity
TritonX-100,critical micellar concentration (CMC),[7],~1 mM
"CCCCCCCCCCCCOS(=O)(=O)[O-].[Na+] [SDS, sodium dodecyl sulphate]",critical micellar concentration (CMC),[7],~7.5 mM
"CN(C)c1ccc(/C=C/C2=[N+](C)c3ccc4ccccc4c3C2(C)C)cc1.[I-] [HC-1, (E)-2-(4-(Dimethylamino)styryl)-1,1,3-trimethyl-1H-benzo[e]indol-3-ium iodide]",effect of CCCP on HC-1 fluorescence,[8],rapid and complete loss of HC-1 fluorescence
same,λabs,[9]; HC-1 in Acetone (0.32 cP),553 nm
same,λem,[9]; HC-1 in Acetone (0.32 cP),606 nm
same,Quantum yield,[9]; HC-1 in Acetone (0.32 cP),0.014 ± 0.0002
same,λabs,[9]; HC-1 in Acetonitrile (0.37 cP),577 nm
same,λem,[9]; HC-1 in Acetonitrile (0.37 cP),613 nm
same,Quantum yield,[9]; HC-1 in Acetonitrile (0.37 cP),0.028 ± 0.0002
same,λabs,[9]; HC-1 in Benzene (0.6 cP),548 nm
same,λem,[9]; HC-1 in Benzene (0.6 cP),608 nm
same,Quantum yield,[9]; HC-1 in Benzene (0.6 cP),0.014 ± 0.0001
same,λem,[9]; HC-1 in DCM (0.43 cP),608 nm
same,Quantum yield,[9]; HC-1 in DCM (0.43 cP),0.033 ± 0.0005
same,λabs,[9]; HC-1 in DMF (0.85 cP),553 nm
same,λem,[9]; HC-1 in DMF (0.85 cP),610 nm
same,Quantum yield,[9]; HC-1 in DMF (0.85 cP),0.028 ± 0.0003
same,λabs,[9]; HC-1 in Ethanol (1.2 cP),556 nm
same,λem,[9]; HC-1 in Ethanol (1.2 cP),607 nm
same,Quantum yield,[9]; HC-1 in Ethanol (1.2 cP),0.024 ± 0.0002
same,λabs,[9]; [15],562 nm
same,λem,[9]; [15],610 nm
same,Quantum yield,[9]; [15],0.087 ± 0.0004
same,λabs,[9]; [16],564 nm
same,λem,[9]; [16],610 nm
same,Quantum yield,[9]; [16],0.477 ± 0.0005
same,λabs,[9]; HC-1 in Methanol (0.6 cP),552 nm
same,λem,[9]; HC-1 in Methanol (0.6 cP),603 nm
same,Quantum yield,[9]; HC-1 in Methanol (0.6 cP),0.018 ± 0.0002
same,λabs,[9]; HC-1 in Water (1 cP),542 nm
same,λem,[9]; HC-1 in Water (1 cP),605 nm
same,Quantum yield,[9]; HC-1 in Water (1 cP),0.034 ± 0.001
same,change of mitochondrial local ordering in activated fibroblasts,[10],increase in local ordering of the mitochondria
same,mitochondrial staining of embryonic stem cells,[11],bright staining of the mitochondrial structures
same,photostability during fast imaging of mitochondria,[2],highly photo-stable; also recorded: significantly more photostable
same,2D intensity correlation with MitoTracker Green (Pearson R),[12],0.95
same,staining of mitochondria of live hPSCs,[4],uniform staining of the mitochondria
same,effect of Monensin on HC-1 fluorescence in mitochondria,[13],significant increase in HC-1 fluorescence; also recorded: sensitive to changes in mitochondrial ordering
same,effect of pH on HC-1 emission,"[14]; 0.1 M buffers pH 3-9.2, small changes at ~pH 3 or ~pH 9",little or no effect
same,"effect of metal ions, serum proteins, plasmid DNA and glutathione (GSH) on HC-1 emission",[14]; 30 minutes incubation,did not significantly affect
"tetramethylrhodamine, ethyl ester [TMRE, reference compound]",photo-toxicity during repeat photo-illumination,[2],irradiation induced depolarization of mitochondrial membrane
same,photostability during fast imaging of mitochondria,[2],photobleaches
